{
  "source": "patent US20030083520A1",
  "about": "“Process for preparing bicyclic amino acid” (Pfizer Inc., priority 2001, published 2003)",
  "origin": "cited, not measured here",
  "data": [
    {"test_system": "α2δ subunit derived from porcine brain tissue", "details": "[3H]gabapentin radioligand", "units": {"α2δ binding affinity": "µM"}, "values": [
      {"smiles": "NCC1(CC(=O)O)C[C@H]2CC[C@@H]2C1", "note": "(racemic) [(+/−)-(1α,5β)(3-Aminomethyl-bicyclo[3.2.0]hept-3-yl)-acetic acid]", "α2δ binding affinity": 2.86},
      {"smiles": "NC[C@]1(CC(=O)O)C[C@H]2CC[C@H]2C1", "note": "[(1α,3α,5α)(3-aminomethyl-bicyclo[3.2.0]hept-3-yl)-acetic acid]", "α2δ binding affinity": 0.038},
      {"smiles": "NC[C@@]1(CC(=O)O)C[C@H]2CC[C@H]2C1", "note": "[(1α,3β,5α)(3-Aminomethyl-bicyclo[3.2.0]hept-3-yl)-acetic acid]", "α2δ binding affinity": 0.332}
    ]}
  ]
}
